# Measurements from patent publication US20260166039A1 (SCHRÖDINGER, INC., priority 2022, published 2026).
# How the values were obtained:
# [1] = biological target: T1, Wee1 kinase domain (Homo sapiens, UniProt P30291); assay: Wee1 Kinase Biochemical Assay (ADP-Glo); settings: class symbols; 1 nM Wee1 enzyme, 15 uM ATP, 4 hours at 25° C.
# T1 construct: Wee1 kinase domain was purchased from Carna (catalog #05-177); purchased Carna 05-177
# In short: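 Carna Wee1 kinase domain at 1 nM, with 15 uM ATP and 2 ng/mL poly(Lys,Tyr 4:1) substrate in 40 mM Tris-HCl, 20 mM MgCl2, 0.1 mg/mL BSA, 2 mM DTT, run 4 h at 25° C. ADP formation read by ADP-Glo luminescence. Percent inhibition normalised to DMSO and saturating-inhibitor controls.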
# [2] = tested on: phosphorylation of Cdc2 Y15 (Wee1 substrate) in A427 cells; assay: Phosphorylated Cdc2 MSD Electrochemiluminescence Assay; assay type: cell-based; settings: Homo sapiens, A-427, class symbols, read-out: A427 pCDC2 MSD IC50
# In short: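 A427 cells (RPMI 1640, 10% FBS) treated 20 h after plating with 3-fold serial compound dilutions, in duplicate, 37 °C, 5% CO2; total incubation 6 h. Lysate Cdc2 pY15 read by MSD electrochemiluminescence sandwich immunoassay; % remaining signal normalised to DMSO (high) and reference Wee1 inhibitor (low) controls.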
# T1 sequence (P30291 299-569 limits assumed): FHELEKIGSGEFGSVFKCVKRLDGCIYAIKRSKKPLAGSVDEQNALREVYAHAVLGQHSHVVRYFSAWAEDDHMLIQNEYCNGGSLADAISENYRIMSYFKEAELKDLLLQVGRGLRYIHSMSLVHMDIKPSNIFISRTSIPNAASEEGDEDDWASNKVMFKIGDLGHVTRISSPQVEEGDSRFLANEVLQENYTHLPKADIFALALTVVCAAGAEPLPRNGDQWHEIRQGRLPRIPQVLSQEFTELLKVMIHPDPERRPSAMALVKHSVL
IC50 [1],IC50 [2],SMILES
< 10 nM,100 to 1000 nM,"CN1C[C@H]2C[C@@H]1CN2c1ccc(Nc2ncc3c(n2)N(c2cccc(N=S(C)(C)=O)c2)[C@@H]2CC(C)(C)OC[C@]32C)cc1 [Example 713, dimethyl((3-((4bR,8aR)-4b,7,7-trimethyl-2-((4-((1R,4R)-5-methyl-2,5-diazabicyclo[2.2.1]heptan-2-yl)phenyl)amino)-4b,7,8,8a-tetrahydropyrano[3′,4′:4,5]pyrrolo[2,3-d]pyrimidin-9(5H)-yl)phenyl)imino)-16-sulfanone]"
< 10 nM,1000 to 10000 nM,"CN1CCC(n2cc(Nc3ncc4c(n3)N(c3cccc(N=S(C)(C)=O)c3)[C@@H]3CC(C)(C)OC[C@]43C)cn2)CC1 [Example 716, dimethyl((3-((4bR,8aR)-4b,7,7-trimethyl-2-((1-(1-methylpiperidin-4-yl)-1H-pyrazol-4-yl)amino)-4b,7,8,8a-tetrahydropyrano[3′,4′:4,5]pyrrolo[2,3-d]pyrimidin-9(5H)-yl)phenyl)imino)-16-sulfanone]"
< 10 nM,100 to 1000 nM,"CC1(C)C[C@H]2N(c3cccc([C@H]4COCCN4)n3)c3nc(Nc4ccc(N5CCOCC5)cc4)ncc3[C@@]2(C)CO1 [Example 731, (4bR,8aR)-4b,7,7-trimethyl-9-(6-((S)-morpholin-3-yl)pyridin-2-yl)-N-(4-morpholinophenyl)-4b,5,7,8,8a,9-hexahydropyrano[3′,4′:4,5]pyrrolo[2,3-d]pyrimidin-2-amine]"
< 10 nM,< 100 nM,"CC1(C)C[C@H]2N(c3cccc([C@@H]4COCCN4)n3)c3nc(Nc4ccc(N5CCOCC5)cc4)ncc3[C@@]2(C)CO1 [Example 734, (4bR,8aR)-4b,7,7-trimethyl-9-(6-((R)-morpholin-3-yl)pyridin-2-yl)-N-(4-morpholinophenyl)-4b,5,7,8,8a,9-hexahydropyrano[3′,4′:4,5]pyrrolo[2,3-d]pyrimidin-2-amine]"
< 10 nM,100 to 1000 nM,"CC1(C)C[C@H]2N(c3cccc([C@H]4CNCCO4)n3)c3nc(Nc4ccc(N5CCOCC5)cc4)ncc3[C@@]2(C)CO1 [Example 737, (4bR,8aR)-4b,7,7-trimethyl-9-(6-((R)-morpholin-2-yl)pyridin-2-yl)-N-(4-morpholinophenyl)-4b,5,7,8,8a,9-hexahydropyrano[3′,4′:4,5]pyrrolo[2,3-d]pyrimidin-2-amine]"
< 10 nM,100 to 1000 nM,"CN[C@H](c1cccc(N2c3nc(Nc4ccc(N5CCN(C)CC5)cc4)ncc3[C@@]3(C)COC(C)(C)C[C@@H]23)n1)C(F)(F)F [Example 755, (4bR,8aR)-4b,7,7-trimethyl-N-(4-(4-methylpiperazin-1-yl)phenyl)-9-(6-((R)-2,2,2-trifluoro-1-(methylamino)ethyl)pyridin-2-yl)-4b,5,7,8,8a,9-hexahydropyrano[3′,4′:4,5]pyrrolo[2,3-d]pyrimidin-2-amine]"
< 10 nM,100 to 1000 nM,"CN[C@@H](c1cccc(N2c3nc(Nc4ccc(N5CCN(C)CC5)cc4)ncc3[C@@]3(C)COC(C)(C)C[C@@H]23)n1)C(F)(F)F [Example 756, (4bR,8aR)-4b,7,7-trimethyl-N-(4-(4-methylpiperazin-1-yl)phenyl)-9-(6-((S)-2,2,2-trifluoro-1-(methylamino)ethyl)pyridin-2-yl)-4b,5,7,8,8a,9-hexahydropyrano[3′,4′:4,5]pyrrolo[2,3-d]pyrimidin-2-amine]"
< 10 nM,100 to 1000 nM,"CNCc1cccc(N2c3nc(NC(=O)[C@@H]4C[C@H]4c4ccccc4)ncc3[C@@]3(C)COC(C)(C)C[C@@H]23)n1 [Example 760, (1R,2R)-2-phenyl-N-((4bR,8aR)-4b,7,7-trimethyl-9-(6-((methylamino)methyl)pyridin-2-yl)-4b,5,7,8,8a,9-hexahydropyrano[3′,4′:4,5]pyrrolo[2,3-d]pyrimidin-2-yl)cyclopropane-1-carboxamide]"
< 10 nM,100 to 1000 nM,"CNCc1cccc(N2c3nc(NC(=O)[C@@H]4C[C@H]4c4cnn(C)c4)ncc3[C@@]3(C)COC(C)(C)C[C@@H]23)n1 [Example 764, (1R,2R)-2-(1-methyl-1H-pyrazol-4-yl)-N-((4bR,8aR)-4b,7,7-trimethyl-9-(6-((methylamino)methyl)pyridin-2-yl)-4b,5,7,8,8a,9-hexahydropyrano[3′,4′:4,5]pyrrolo[2,3-d]pyrimidin-2-yl)cyclopropane-1-carboxamide]"
< 10 nM,100 to 1000 nM,"CNCc1cccc(N2c3nc(NC(=O)[C@@H]4C[C@H]4c4cccnc4)ncc3[C@@]3(C)COC(C)(C)C[C@@H]23)n1 [Example 768, (1R,2R)-2-(pyridin-3-yl)-N-((4bR,8aR)-4b,7,7-trimethyl-9-(6-((methylamino)methyl)pyridin-2-yl)-4b,5,7,8,8a,9-hexahydropyrano[3′,4′:4,5]pyrrolo[2,3-d]pyrimidin-2-yl)cyclopropane-1-carboxamide]"
< 10 nM,100 to 1000 nM,"CN=[S@](C)(=O)c1cccc(N2c3nc(Nc4ccc(N5CC6(CN(C)C6)C5)cc4)ncc3[C@@]3(C)COC(C)(C)C[C@@H]23)n1 [Example 770, (R)-methyl(methylimino)(6-((4bR,8aR)-4b,7,7-trimethyl-2-((4-(6-methyl-2,6-diazaspiro[3.3]heptan-2-yl)phenyl)amino)-4b,7,8,8a-tetrahydropyrano[3′,4′:4,5]pyrrolo[2,3-d]pyrimidin-9(5H)-yl)pyridin-2-yl)-16-sulfanone]"
< 10 nM,100 to 1000 nM,"CN=[S@@](C)(=O)c1cccc(N2c3nc(Nc4ccc(N5CC6(CN(C)C6)C5)cc4)ncc3[C@@]3(C)COC(C)(C)C[C@@H]23)n1 [Example 771, (S)-methyl(methylimino)(6-((4bR,8aR)-4b,7,7-trimethyl-2-((4-(6-methyl-2,6-diazaspiro[3.3]heptan-2-yl)phenyl)amino)-4b,7,8,8a-tetrahydropyrano[3′,4′:4,5]pyrrolo[2,3-d]pyrimidin-9(5H)-yl)pyridin-2-yl)-16-sulfanone]"
< 10 nM,1000 to 10000 nM,"CN1C[C@@H]2C[C@H]1CN2c1ccc(Nc2ncc3c(n2)N(c2cccc(P(C)(C)=O)n2)[C@@H]2CC(C)(C)OC[C@]32C)cc1 [Example 777, dimethyl(6-((4bR,8aR)-4b,7,7-trimethyl-2-((4-((1S,4S)-5-methyl-2,5-diazabicyclo[2.2.1]heptan-2-yl)phenyl)amino)-4b,7,8,8a-tetrahydropyrano[3′,4′:4,5]pyrrolo[2,3-d]pyrimidin-9(5H)-yl)pyridin-2-yl)phosphine oxide]"
< 10 nM,100 to 1000 nM,"CN1C[C@H]2C[C@@H]1CN2c1ccc(Nc2ncc3c(n2)N(c2cccc(P(C)(C)=O)n2)[C@@H]2CC(C)(C)OC[C@]32C)cc1 [Example 778, dimethyl(6-((4bR,8aR)-4b,7,7-trimethyl-2-((4-((1R,4R)-5-methyl-2,5-diazabicyclo[2.2.1]heptan-2-yl)phenyl)amino)-4b,7,8,8a-tetrahydropyrano[3′,4′:4,5]pyrrolo[2,3-d]pyrimidin-9(5H)-yl)pyridin-2-yl)phosphine oxide]"
< 10 nM,< 100 nM,"CC1(C)C[C@H]2N(c3cccc(P(C)(C)=O)n3)c3nc(Nc4ccn([C@H]5CCOC5)c(=O)c4)ncc3[C@@]2(C)CO1 [Example 782, 4-(((4bR,8aR)-9-(6-(dimethylphosphoryl)pyridin-2-yl)-4b,7,7-trimethyl-4b,5,7,8,8a,9-hexahydropyrano[3′,4′:4,5]pyrrolo[2,3-d]pyrimidin-2-yl)amino)-1-((S)-tetrahydrofuran-3-yl)pyridin-2(1H)-one]"
